Test results: patent US9109004B2, “Progesterone receptor antagonists” (Bayer Intellectual Property GmbH, priority 2010, dated 2015)

Legend:
[1] = target: T1, human progesterone receptor A (Homo sapiens, UniProt P06401); experiment: Progesterone-receptor-antagonistic action in stably transfected SK-N-MC cells, MTV-LUC reporter (PR-A); format: cell-based; settings: antagonistic potency vs 0.1 nmol/l promegestone, 24 hours, luciferase
T1 construct: expressed in transfected cells; host or cells: SK-N-MC human neuroblastoma cells, stably transfected
T1 sequence (P06401 1-769 isoform P06401-2): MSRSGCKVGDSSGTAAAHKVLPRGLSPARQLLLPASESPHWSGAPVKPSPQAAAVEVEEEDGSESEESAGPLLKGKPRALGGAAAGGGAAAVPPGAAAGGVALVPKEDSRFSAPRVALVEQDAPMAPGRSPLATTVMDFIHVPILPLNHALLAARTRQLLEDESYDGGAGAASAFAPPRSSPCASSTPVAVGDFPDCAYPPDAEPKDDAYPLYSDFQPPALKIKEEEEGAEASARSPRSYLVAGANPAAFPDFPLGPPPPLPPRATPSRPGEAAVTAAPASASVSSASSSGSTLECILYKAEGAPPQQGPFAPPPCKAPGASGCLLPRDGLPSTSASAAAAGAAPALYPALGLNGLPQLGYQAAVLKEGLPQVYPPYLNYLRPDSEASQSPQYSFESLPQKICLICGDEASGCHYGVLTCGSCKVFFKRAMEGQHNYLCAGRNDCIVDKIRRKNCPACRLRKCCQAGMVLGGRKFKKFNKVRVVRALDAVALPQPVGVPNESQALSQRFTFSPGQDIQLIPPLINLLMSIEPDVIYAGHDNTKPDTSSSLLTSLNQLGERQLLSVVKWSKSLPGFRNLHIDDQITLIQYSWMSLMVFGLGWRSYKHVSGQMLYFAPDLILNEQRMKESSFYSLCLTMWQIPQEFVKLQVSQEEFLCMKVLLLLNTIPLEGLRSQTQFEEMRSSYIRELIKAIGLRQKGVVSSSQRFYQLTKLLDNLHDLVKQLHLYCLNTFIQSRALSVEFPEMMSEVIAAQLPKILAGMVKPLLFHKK
How it was run: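 SK-N-MC neuroblastoma cells stably expressing human PR-B or PR-A plus MMTV-LUC reporter, treated 24 h with 0.1 nmol/l promegestone plus test compound at 0.01 nmol/l–1 μmol/l. Luciferase in lysates read as RLU; values as % efficacy and IC50.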

[2] = target: T2, human progesterone receptor B (Homo sapiens, UniProt P06401); experiment: Progesterone-receptor-antagonistic action in stably transfected SK-N-MC cells, MTV-LUC reporter (PR-B); format: cell-based; settings: antagonistic potency vs 0.1 nmol/l promegestone, 24 hours, luciferase
T2 construct: expressed in transfected cells; host or cells: SK-N-MC human neuroblastoma cells, stably transfected
T2 sequence (P06401 1-933): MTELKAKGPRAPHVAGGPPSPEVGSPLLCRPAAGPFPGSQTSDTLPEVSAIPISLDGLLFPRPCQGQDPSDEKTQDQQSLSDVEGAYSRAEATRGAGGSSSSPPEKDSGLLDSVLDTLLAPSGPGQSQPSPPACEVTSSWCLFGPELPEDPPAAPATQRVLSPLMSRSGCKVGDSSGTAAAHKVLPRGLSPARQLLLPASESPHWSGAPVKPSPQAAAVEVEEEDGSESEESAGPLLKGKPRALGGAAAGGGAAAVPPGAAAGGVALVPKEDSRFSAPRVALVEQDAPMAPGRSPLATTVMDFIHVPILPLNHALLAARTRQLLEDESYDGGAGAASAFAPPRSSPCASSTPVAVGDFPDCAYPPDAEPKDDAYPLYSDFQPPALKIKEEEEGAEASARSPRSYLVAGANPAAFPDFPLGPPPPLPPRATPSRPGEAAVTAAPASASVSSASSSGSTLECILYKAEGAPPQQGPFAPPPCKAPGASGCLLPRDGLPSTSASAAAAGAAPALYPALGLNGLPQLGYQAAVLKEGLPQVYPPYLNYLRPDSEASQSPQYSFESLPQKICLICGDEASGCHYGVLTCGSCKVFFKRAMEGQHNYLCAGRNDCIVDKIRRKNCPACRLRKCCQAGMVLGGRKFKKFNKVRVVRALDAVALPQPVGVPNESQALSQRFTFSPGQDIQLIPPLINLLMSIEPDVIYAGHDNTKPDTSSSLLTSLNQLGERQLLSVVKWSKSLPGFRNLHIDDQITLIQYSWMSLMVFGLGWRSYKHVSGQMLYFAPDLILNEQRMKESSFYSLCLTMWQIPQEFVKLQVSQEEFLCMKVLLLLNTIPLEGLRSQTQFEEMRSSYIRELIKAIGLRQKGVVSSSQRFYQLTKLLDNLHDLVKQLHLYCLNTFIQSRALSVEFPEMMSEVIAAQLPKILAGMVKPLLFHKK
Experimental: Progesterone-Receptor-Antagonistic Action in Stable Transfectants of Human Neuroblastoma Cells (SK-N-MC Cells) with the Human Progesterone A or Progesterone B Receptor and an MTV-LUC Reporter Construct
SK-N-MC cells (human neuroblastoma cells) that have been stably transfected with plasmids that express the human progesterone receptor B (pRChPR-B-neo) or the human progesterone receptor A (pRChPR-A-neo) and a reporter construct (pMMTV-LUC), were incubated for 24 hours either in the absence (negative control) or in the presence of increasing amounts of the particular test compound (0.01 nmol/l, 0.1 nmol/l, 1 nmol/l, 10 nmol/l, 100 nmol/l and 1 μmol/l), to determine the agonistic efficacy. As positive control of reporter gene induction, the cells were treated with the synthetic gestagen promegestone (0.01 nmol/l, 0.1 nmol/l, 1 nmol/l, 10 nmol/l, 100 nmol/l and 1 μmol/l). For determination of the antagonistic activity, the cells were treated with 0.1 nmol/l promegestone and additionally with increasing amounts of the particular test compound (0.01 nmol/l, 0.1 nmol/l, 1 nmol/l, 10 nmol/l, 100 nmol/l and 1 μmol/l). The activity of the reporter gene LUC (LUC=luciferase) was determined in the cell lysates and was measured as RLU (relative light units). All measured values are given as % efficacy and as EC50 or IC50 concentrations.

## C[C@]12C[C@H](c3ccc(-c4ccc(C(N)=O)cc4)cc3)C3=C4CCC(=O)C=C4CC[C@H]3[C@@H]1CC[C@@]2(O)C(F)(F)C(F)(F)F [Example 79, 4′-[(11β,17β)-17-Hydroxy-3-oxo-17-(pentafluoroethyl)estra-4,9-dien-11-yl]biphenyl-4-carboxamide]
[1]
  IC50: 0.01 nM
[2]
  IC50: 0.07 nM
